# Assay results: patent US20010006656A1, “METHODS AND COMPOSITIONS FOR INHIBITING INFLAMMATION ASSOCIATED WITH PULMONARY DISEASE” (UNIVERSITY OF WASHINGTON, priority 1999, published 2001)
# Tests used:
# [1] = test system: Jurkat cell adherence to FN; assay: Jurkat cell adherence to fibronectin (calcein-AM fluorescence); assay type: cell-based; settings: for reversal of the inhibitory effect of lovastatin on PMA-stimulated Jurkat cell adhesion: co-incubated with lovastatin 2.5 days
# Description: (§1) Briefly, Jurkat and U937 cells (American Type Culture Collection; Manassas Va.) were maintained in Earles Modified Eagles Medium (EMEM; M. A. Bioproducts, Walkersville, Md.) supplemented with 10% fetal bovine serum (FBS; Hyclone Laboratories Inc.; Logan Utah), 5 mM glutamine (Life Technologies Inc.; Gaithersburg Md.), 5 mM sodium pyruvate (Life Technologies), and […] (Life Technologies). Lovastatin (Calbiochem; San Diego Calif.) was converted to open acid form before use. […] The solution was heated to 50° C. for two hours. To this heated solution, 4.5 ml of an aqueous solution containing 81 mM NaH2PO4 and […] was added. The solution was heated to 40° C. for 30 min and the pH was adjusted to 7.3 with concentrated HCl. The final concentration was determined by UV spectroscopy (ε231 =21,490 M^−1cm^−1). The stock solution was frozen in small aliquots.
# Cell adhesion of Jurkat cells and U937 cells to fibronectin (FN) or laminin (LN), respectively, was measured. Human FN (1.25 μg/ml)(Collaborative Research Inc.; Bedford Mass.) or human LN (100 μg/ml)(Life Technologies) was coated onto 96-well PRO-BIND assay plate (Falcon; Becton Dickinson; Lincoln Park N.J.) by incubating overnight at 4° C. The plate was then blocked with 3% bovine serum albumin (BSA) in phosphate buffered saline (PBS) at room temperature for one hour. Immediately before use, plates were washed three times with PBS.
# (§2) After centrifugation for seven min at 300 xg, cells were resuspended in 1 ml phenol red-free medium and then labeled by incubation with 5 μl of the fluorescent dye calcein-AM (1 mg/ml in DMSO; Molecular Probes; Eugene Oreg.) for 30 min at room temperature in the dark. The cells were then washed twice with phenol red-free medium. After incubation with phorbol 12-myristate 13--acetate (PMA) (100 ng/ml) (Sigma; St. Louis Mo.), which is an activator of protein kinase C (PKC), or MAb 8A2 (2 μg/ml) for 30 min in control medium at room temperature, cells (˜1×10^5/well) were added to triplicate wells. After incubation for 30 min at 37° C., the total cells in the well were analyzed using a fluorescence plate reader (PerSeptive Biosystem; Framingham Mass.). Unbound cells were removed by washing the plate three times with phenol red-free medium, and the plate was then reanalyzed to determine fluorescence of bound cells. After subtraction of background, the percent adherence was calculated as the emission at 530 nm of bound cells divided by the […] of total cells.
# RhoA = RhoA immunoblot (electrophoretic mobility as measure of isoprenylation) in Jurkat cells; assay type: cell-based
# Description: Cell lysates were subjected to immunoblot analysis to assess RhoA electrophcoretic mobility as a measurement of isoprenylation. For RhoA blots, membranes were sequentially incubated with rabbit anti-RhoA antibody (Santa Cruz Biotechnology, Inc.) in TBST at room temperature for three hours, washed with TBST five times, incubated with goat anti-rabbit IgG (H+L) conjugated with horse radish peroxidase (HRP) (Bio-Rad Laboratories; Hercules Calif.) for one hour, and then washed with TBST five times. RhoA bands were visualized on x-ray film by incubation of membrane with chemiluminescence luminol reagent (Santa Cruz Biotechnology) at room temperature for one minute.
# ERK1 = assay: Immunoblot for phosphorylated ERK1 in PMA-treated Jurkat cells; assay type: cell-based
# [2] = test system: neutrophil (PMN) and mononuclear cell migration into lung; assay: LPS-induced pulmonary inflammation in mice, cell counts in lung lavage fluid; assay type: in vivo
# Description: (§3) Pulmonary inflammation was induced in mice using a technique similar to that reported by others (Szarka et al., J. Immunol. Methods 202:49-57 (1997)). Briefly, mice were anesthetized with halothane, then 2.5 μl/g was placed into their nares where it was rapidly taken into the trachea and deep into the lungs. […] Compounds were administered in a given amount per g of mouse body weight. In a second set of experiments, PMA (50 ng/μl final concentration; 5 mg/ml stock solution in dimethyl sulfoxide) was used in place of LPS. Mice were allowed to recover from anesthesia and returned to their cages with free access to food and water.
# At either 24 (LPS and PMA) or 48 (LPS) hours, mice were returned to the laboratory and killed, their chest rapidly opened, then both lungs were lavaged with 0.5 ml of normal saline followed by a second lavage of another 0.5 ml of normal saline that was lavaged in and out four times. The lavage fluid was combined, total cell counts determined using a hemocytometer, cytospin preparations were then made, the cells stained using the commercial kit (DiffQuik; Baxter Healthcare Corp.; Miami Fla.), and differential cells counts completed. The total number of mononuclear cells and neutrophils in the lavage fluid was determined by counting 100 cells. The number of neutrophils or macrophages was determined by multiplying the percentages by the total cell count. Differences between groups were tested using the computer program Stat View (Abacus Concepts; Berkeley Calif.) by analysis of variances and post hoc testing using Fisher's protected least square differences. Differences were assumed significant for p<0.05. The lavage fluid remaining after cytospin and cell counts was subjected to centrifugation, and the supernatant collected and frozen at −20° C. for later cytokine analysis. […] Thus, lavage fluid was derived from regions where LPS was deposited as well as those regions receiving no challenge.
# The LPS was given at the same time as the last dose of lovastatin by i.n. instillation as described above. […] Mice were returned to their cages with free access to food and water for 24 hours, then returned to the laboratory and killed. Lavage was performed and cell counts completed as described above.
# [3] = Mouse hind limb ischemia and reperfusion, leg diameter; assay type: in vivo; settings: 7 μg/g i.p. at beginning of 30 min ischemia; 24 hours; t-test
# Description: Briefly, mice were anesthetized with halothane. A tourniquet was then placed on one hind limb to completely occlude blood flow and kept in place for 30 min. Body temperature was maintained at 37° C. with a heating blanket during the period of ischemia. Perfusion of the hind limb was re-established by removal of the tourniquet, and leg diameter was measured hourly for the next 6 hours and again at 24 hours.
# KC = KC chemokine ELISA in lung lavage fluid of LPS-challenged mice; assay type: in vivo, murine
# Description: (§4) Lavage fluids were used to measure cytokine production. The murine chemoattractant KC is a member of the CXC chemokine family of inflammatory cytokines and was measured by ELISA (R&D Systems; Minneapolis Minn.). The pro-inflammatory cytokine murine TNFα was also measured by ELISA (R&D Systems). The protocol for both assays was similar. Briefly, assay diluent was mixed with sample, which was the lavage fluid obtained as described in Example IV. The diluent was added to the appropriate capture plate and incubated for two hours. Plates were washed, incubated with conjugated anti-KC or anti-TNFα antibody for two hours, washed again, and then incubated with substrate for 30 min. A stop solution was then added, and the optical density determined by plate reader.
# [4] = test system: U937 cell adherence to LN; assay: U937 cell adherence to laminin (calcein-AM fluorescence); assay type: cell-based
# Description: as §1
# Cell adhesion of Jurkat cells and U937 cells to fibronectin (FN) or laminin (LN), respectively, was measured. Human FN (1.25 μg/ml)(Collaborative Research Inc.; Bedford Mass.) or human LN (100 μg/ml)(Life Technologies) was coated onto 96-well PRO-BIND assay plate (Falcon; Becton Dickinson; Lincoln Park N.J.) by incubating overnight at 4° C. […]
# as §2, with “The cells were then washed twice with phenol red-free medium. After incubation with phorbol 12-myristate 13--acetate (PMA) (100 ng/ml) (Sigma; St. Louis Mo.), which is an activator of protein kinase C (PKC), or MAb 8A2 (2 μg/ml) for 30 min in control medium at room temperature, cells (˜1×10^5/well) were added to triplicate wells.” left out
# TNFα = TNFα ELISA in lung lavage fluid of LPS-challenged mice; assay type: in vivo, murine
# Description: as §4
# [5] = test system: neutrophil (PMN) and mononuclear cell migration into lung; assay: PMA-induced pulmonary inflammation in mice, cell counts in lung lavage fluid; assay type: in vivo; settings: i.n. lovastatin 7.0 μg/g with i.n. PMA; 24 hours
# Description: as §3
# At either 24 (LPS and PMA) or 48 (LPS) hours, mice were returned to the laboratory and killed, their chest rapidly opened, then both lungs were lavaged with 0.5 ml of normal saline followed by a second lavage of another 0.5 ml of normal saline that was lavaged in and out four times. The lavage fluid was combined, total cell counts determined using a hemocytometer, cytospin preparations were then made, the cells stained using the commercial kit (DiffQuik; Baxter Healthcare Corp.; Miami Fla.), and differential cells counts completed. The total number of mononuclear cells and neutrophils in the lavage fluid was determined by counting 100 cells. The number of neutrophils or macrophages was determined by multiplying the percentages by the total cell count. […]
smiles,measurement,setting,value
"CC(C)=CCC/C(C)=C/CC/C(C)=C/CC/C(C)=C/CO [GGOH, all trans-geranylgeraniol]",concentration required to rescue Jurkat cell from the inhibitory effect of lovastatin,[1]; 10 μM lovastatin (FIG. 3B),2.5 µM
same,reversal of the inhibitory effect of lovastatin on PMA-stimulated Jurkat cell adhesion,[1],reversed
same,RhoA migration on addition with lovastatin,RhoA; GGOH 5 μM with lovastatin,more rapid migration of RhoA as seen in untreated cells
"CC(C)=CCC/C(C)=C/CC/C(C)=C/CO [FOH, trans, trans-farnesol]",reversal of the inhibitory effect of lovastatin on PMA-stimulated Jurkat cell adhesion,[1],not
COc1cccc(-c2cc(=O)c3ccccc3o2)c1N [PD-98059],PMA-stimulated Jurkat cell adherence,"[1]; 10 μM, 30 min pre-incubation before PMA",did not inhibit
same,ERK1 phosphorylation,ERK1; Jurkat cells pre-incubated 30 min with MEK-1 inhibitor before PMA,completely blocked
CC[C@H](C)C(=O)O[C@H]1C[C@@H](C)C=C2C=C[C@H](C)[C@H](CC[C@@H]3C[C@@H](O)CC(=O)O3)[C@H]21 [lovastatin],percent of PMNs in lavage fluid compared with the control group,"[2]; i.n. lovastatin 0.7 μg/g with i.n. LPS, 24 hours",74%
same,percent of PMNs in lavage fluid compared with the control group,"[2]; i.n. lovastatin 0.7 μg/g with i.n. LPS, 48 hours",75%
same,percent of PMNs in lavage fluid compared with the control group,"[2]; i.n. lovastatin 1.4 μg/g with i.n. LPS, 24 hours",28%
same,percent of PMNs in lavage fluid compared with the control group,"[2]; i.n. lovastatin 1.4 μg/g with i.n. LPS, 48 hours",32%
same,percent of PMNs in lavage fluid compared with the control group,"[2]; i.n. lovastatin 7.0 μg/g with i.n. LPS, 24 hours",4%
same,percent of PMNs in lavage fluid compared with the control group,"[2]; i.n. lovastatin 7.0 μg/g with i.n. LPS, 48 hours",5%
same,total number of lavage mononuclear leukocytes,"[2]; i.n. lovastatin with i.n. LPS, 24 hours",no effect
same,number of mononuclear leukocytes in lavage fluid,"[2]; i.n. lovastatin with i.n. LPS, 48 hours, differences not statistically significant",somewhat less
same,"number of PMNs accumulating, percent of control group","[2]; i.p. lovastatin 7.0 μg/g daily x3, i.n. LPS, 24 hours, p<0.05",30%
same,number of mononuclear leukocytes in lavage fluid,"[2]; i.p. lovastatin 7.0 μg/g, i.n. LPS, 24 hours",not different between groups
same,"leg diameter after ischemia and reperfusion, vehicle vs lovastatin",[3],significantly larger diameter than the lovastatin treated leg
same,effect on mAb 8A2-stimulated Jurkat cell adherence to FN,"[1]; 8A2 2 μg/ml, 2.5 days pretreatment",no significant effect
same,inhibition of PMA-stimulated Jurkat cell adherence to FN,"[1]; concentration greater than 5 μM, 2.5 days pretreatment",nearly completely inhibited
same,PMA-stimulated MAPK (ERK1) phosphorylation,"ERK1; Jurkat cells, lovastatin 2.5 days, concentrations up to 40 μM, PMA 100 ng/ml 30 min",does not inhibit
same,concentration of KC chemokine in the lavage fluid,"KC; i.n. lovastatin, 24 hours after LPS, 7.0 μg/g group significantly different from control",reduced
same,KC concentration in the lavage fluid,"KC; i.n. lovastatin, 48 hours after LPS, four groups",not different
same,KC concentration in the lavage fluid,"KC; i.p. lovastatin pretreatment, 24 hours after i.n. LPS",significant reduction
same,inhibition of mAb 8A2-stimulated adherence of U937 cells to LN,"[4]; lovastatin pretreatment, 8A2 2 μg/ml",not
same,inhibition of PMA-stimulated adherence of U937 cells to LN,"[4]; lovastatin pretreatment, PMA 100 ng/ml",inhibited
same,effect on stimulated adherence when added at the time of the adhesion assay instead of pretreating,[4]; no pretreatment,without effect
same,TNF concentration in lavage fluid,"TNFα; i.n. lovastatin, 24 hours, all doses significant vs control",reduced in a dose-dependent manner
same,"TNF concentration in lavage fluid, differences from control","TNFα; i.n. lovastatin, 48 hours",not significant
same,TNF production,"TNFα; i.p. lovastatin, 24 hours after i.n. LPS, statistically significant",effective in preventing TNF production
same,isoprenylation state of RhoA,RhoA; 14 μM lovastatin,Most RhoA was in non-isoprenylated form
same,concentration at which geranylgeranylation of RhoA was significantly inhibited,"RhoA; Jurkat cells, 2.5 days",≥ 0.5 µM
same,inhibition of PMN emigration,[5],~100%
same,"mononuclear cell number, control vs lovastatin treatment",[5],no difference
